From patent US20260258064A1 (SIRONAX LTD., priority 2023, published 2026)

molecular target: T1, SARM1 (50-724) (Homo sapiens, UniProt Q6SZW1); experiment: SARM1 (50-724) enzymatic assay (LC-MS/MS); assay type: biochemical; details: Purified SARM1 (50-724) 2 nM, NMN as activator, NAD+ as substrate, 1 h at room temperature, read-out: IC50 (SARM1 inhibitory activity)
T1 construct: Purified SARM1 (50-724) with a final concentration of 2 nM was pre-incubated with a test compound
T1 sequence (Q6SZW1 50-724): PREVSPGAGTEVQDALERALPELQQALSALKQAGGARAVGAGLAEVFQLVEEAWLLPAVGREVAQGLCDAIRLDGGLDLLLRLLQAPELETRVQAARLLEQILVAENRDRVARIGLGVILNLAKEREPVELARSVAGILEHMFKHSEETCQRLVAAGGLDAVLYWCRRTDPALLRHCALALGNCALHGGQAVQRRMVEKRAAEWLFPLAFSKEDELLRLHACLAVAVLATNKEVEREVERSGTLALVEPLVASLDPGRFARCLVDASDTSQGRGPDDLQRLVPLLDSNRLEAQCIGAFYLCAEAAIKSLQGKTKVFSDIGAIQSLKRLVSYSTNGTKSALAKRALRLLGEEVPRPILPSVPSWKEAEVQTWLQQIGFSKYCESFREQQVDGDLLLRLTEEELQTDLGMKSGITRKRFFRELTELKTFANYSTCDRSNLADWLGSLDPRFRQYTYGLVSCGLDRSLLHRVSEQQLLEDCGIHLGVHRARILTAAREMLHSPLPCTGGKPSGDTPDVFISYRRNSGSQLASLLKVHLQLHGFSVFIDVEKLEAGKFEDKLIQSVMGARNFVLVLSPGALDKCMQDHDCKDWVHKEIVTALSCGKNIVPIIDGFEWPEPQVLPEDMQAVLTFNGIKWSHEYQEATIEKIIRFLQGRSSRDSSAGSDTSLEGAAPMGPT
Summary of the method: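 Human SARM1 (50-724), 2 nM, pre-incubated 15 min at room temperature with compound in Dulbecco's PBS. Reaction started with 200 µM NMN (activator) plus […] NAD^+ substrate, run 1 h at room temperature, quenched with 70% acetonitrile. Turnover quantified by LC-MS/MS; IC50 reported.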

SMILES	IC50
FC(F)(F)c1ccc2[nH]c(-c3nncn3-c3ccncc3OC3CC3)nc2c1 [Compound 228]	> 1000 nM
N#CC1(c2ccc3[nH]c(-c4nncn4-c4cccc(F)c4Cl)nc3c2)CC12CC2 (stereo not drawn) [Compound 229, 1-(2-(4-(2-chloro-3-fluorophenyl)-4H-1,2,4-triazol-3-yl)-1H-benzo[d]imidazol-5-yl)spiro[2.2]pentane-1-carbonitrile]	≤ 100 nM
OCCOc1ccc(OC(F)(F)F)c(-n2cnnc2-c2nc3cc(C(F)(F)F)ccc3[nH]2)c1 [Compound 230, 2-(4-(trifluoromethoxy)-3-(3-(5-(trifluoromethyl)-1H-benzo[d]imidazol-2-yl)-4H-1,2,4-triazol-4-yl)phenoxy)ethan-1-ol]	≤ 100 nM
CCc1ccncc1-n1cnnc1-c1nc2cc(C(F)(F)F)ccc2[nH]1 [Compound 231, 2-(4-(4-ethylpyridin-3-yl)-4H-1,2,4-triazol-3-yl)-5-(trifluoromethyl)-1H-benzo[d]imidazole]	≤ 100 nM
FC(F)(F)Oc1cn2ccnc2cc1-n1cnnc1-c1nc2cc(C(F)(F)F)ccc2[nH]1 [Compound 232, 2-(4-(6-(trifluoromethoxy)imidazo[1,2-a]pyridin-7-yl)-4H-1,2,4-triazol-3-yl)-5-(trifluoromethyl)-1H-benzo[d]imidazole]	≤ 100 nM
Fc1cc(C(F)(F)F)cc2nc(-c3nncn3-c3cnccc3C(F)(F)F)[nH]c12 [Compound 233, 7-Fluoro-5-(trifluoromethyl)-2-(4-(4-(trifluoromethyl)pyridin-3-yl)-4H-1,2,4-triazol-3-yl)-1H-benzo[d]imidazole]	≤ 100 nM
FC(F)Oc1ncccc1-n1cnnc1-c1nc2cc(C(F)(F)F)ccc2[nH]1 [Compound 235, 2-(4-(2-(difluoromethoxy)pyridin-3-yl)-4H-1,2,4-triazol-3-yl)-5-(trifluoromethyl)-1H-benzo[d]imidazole]	≤ 100 nM
FC(F)(F)c1ccc2[nH]c(-c3nncn3-c3cc4nccn4cc3C(F)(F)F)nc2c1 [Compound 236, 5-(trifluoromethyl)-2-(4-(6-(trifluoromethyl)imidazo[1,2-a]pyridin-7-yl)-4H-1,2,4-triazol-3-yl)-1H-benzo[d]imidazole]	≤ 100 nM
FC(F)C1(c2ccc3[nH]c(-c4nncn4-c4ccncc4OC(F)(F)F)nc3c2)CC1 [Compound 237]	≤ 100 nM
CCC(c1ccc2[nH]c(-c3nncn3-c3ccncc3OC(F)(F)F)nc2c1)C(F)F (stereo not drawn) [Compound 238, 5-(1,1-difluorobutan-2-yl)-2-(4-(3-(trifluoromethoxy)pyridin-4-yl)-4H-1,2,4-triazol-3-yl)-1H-benzo[d]imidazole]	≤ 100 nM
Oc1ccc(C(F)(F)F)c(-n2cnnc2-c2nc3cc(C(F)(F)F)ccc3[nH]2)c1 [Compound 240, 4-(trifluoromethyl)-3-(3-(5-(trifluoromethyl)-1H-benzo[d]imidazol-2-yl)-4H-1,2,4-triazol-4-yl)phenol]	≤ 100 nM
OCCOc1cc(-n2cnnc2-c2nc3cc(C(F)(F)F)ccc3[nH]2)c(OC(F)(F)F)cn1 [Compound 241, 2-((5-(trifluoromethoxy)-4-(3-(5-(trifluoromethyl)-1H-benzo[d]imidazol-2-yl)-4H-1,2,4-triazol-4-yl)pyridin-2-yl)oxy)ethan-1-ol]	≤ 100 nM
Cn1cc(OC(F)(F)F)c(-n2cnnc2-c2nc3cc(C(F)(F)F)ccc3[nH]2)cc1=S [Compound 242, 1-methyl-5-(trifluoromethoxy)-4-(3-(5-(trifluoromethyl)-1H-benzo[d]imidazol-2-yl)-4H-1,2,4-triazol-4-yl)pyridine-2(1H)-thione]	≤ 100 nM
CP(C)(=O)c1ccc(Cl)c(-n2cnnc2-c2nc3cc(C(F)(F)F)ccc3[nH]2)c1 [Compound 244, (4-chloro-3-(3-(5-(trifluoromethyl)-1H-benzo[d]imidazol-2-yl)-4H-1,2,4-triazol-4-yl)phenyl)dimethylphosphine oxide]	> 1000 nM
CN(C)c1ccncc1-n1cnnc1-c1nc2cc(C(F)(F)F)ccc2[nH]1 [Compound 245, N,N-dimethyl-3-(3-(5-(trifluoromethyl)-1H-benzo[d]imidazol-2-yl)-4H-1,2,4-triazol-4-yl)pyridin-4-amine]	≤ 100 nM
Cc1nccc(C(F)(F)F)c1-n1cnnc1-c1nc2cc(C(F)(F)F)ccc2[nH]1 [Compound 246, 2-(4-(2-methyl-4-(trifluoromethyl)pyridin-3-yl)-4H-1,2,4-triazol-3-yl)-5-(trifluoromethyl)-1H-benzo[d]imidazole]	≤ 100 nM
FC(F)(F)Cc1ccccc1-n1cnnc1-c1nc2cc(C(F)(F)F)ccc2[nH]1 [Compound 248, 2-(4-(2-(2,2,2-trifluoroethyl)phenyl)-4H-1,2,4-triazol-3-yl)-5-(trifluoromethyl)-1H-benzo[d]imidazole]	> 1000 nM
NC(=O)COc1ccc(OC(F)(F)F)c(-n2cnnc2-c2nc3cc(C(F)(F)F)ccc3[nH]2)c1 [Compound 249, 2-(4-(trifluoromethoxy)-3-(3-(5-(trifluoromethyl)-1H-benzo[d]imidazol-2-yl)-4H-1,2,4-triazol-4-yl)phenoxy)acetamide]	≤ 100 nM
OCCOc1ccc(OC(F)(F)F)c(-n2cnnc2-c2nc3cc(C(F)(F)F)ccc3[nH]2)n1 [Compound 250]	≤ 100 nM
OCC(F)(F)COc1ccc(OC(F)(F)F)c(-n2cnnc2-c2nc3cc(C(F)(F)F)ccc3[nH]2)n1 [Compound 251, 2,2-difluoro-3-((5-(trifluoromethoxy)-6-(3-(5-(trifluoromethyl)-1H-benzo[d]imidazol-2-yl)-4H-1,2,4-triazol-4-yl)pyridin-2-yl)oxy)propan-1-ol]	≤ 100 nM
FC(F)c1ccncc1-n1cnnc1-c1nc2cc(C(F)(F)F)ccc2[nH]1 [Compound 252, 2-(4-(4-(difluoromethyl)pyridin-3-yl)-4H-1,2,4-triazol-3-yl)-5-(trifluoromethyl)-1H-benzo[d]imidazole]	≤ 100 nM
OCc1cc(-n2cnnc2-c2nc3cc(C(F)(F)F)ccc3[nH]2)c(OC(F)(F)F)cn1 [Compound 253, (5-(trifluoromethoxy)-4-(3-(5-(trifluoromethyl)-1H-benzo[d]imidazol-2-yl)-4H-1,2,4-triazol-4-yl)pyridin-2-yl)methanol]	≤ 100 nM
CS(=O)(=O)CCc1cc(-n2cnnc2-c2nc3cc(C(F)(F)F)ccc3[nH]2)c(OC(F)(F)F)cn1 [Compound 254, 2-(4-(2-(2-(methylsulfonyl)ethyl)-5-(trifluoromethoxy)pyridin-4-yl)-4H-1,2,4-triazol-3-yl)-5-(trifluoromethyl)-1H-benzo[d]imidazole]	≤ 100 nM
CC(C)(O)COc1ccc(OC(F)(F)F)c(-n2cnnc2-c2nc3cc(C(F)(F)F)ccc3[nH]2)n1 [Compound 255, 2-methyl-1-((5-(trifluoromethoxy)-6-(3-(5-(trifluoromethyl)-1 H-benzo[d]imidazol-2-yl)-4H-1,2,4-triazol-4-yl)pyridin-2-yl)oxy)propan-2-ol]	≤ 100 nM
CC(C)(O)CCOc1ccc(OC(F)(F)F)c(-n2cnnc2-c2nc3cc(C(F)(F)F)ccc3[nH]2)n1 [Compound 256, 2-methyl-4-((5-(trifluoromethoxy)-6-(3-(5-(trifluoromethyl)-1H-benzo[d]imidazol-2-yl)-4H-1,2,4-triazol-4-yl)pyridin-2-yl)oxy)butan-2-ol]	≤ 100 nM
Cn1ncc(C(F)(F)F)c1-n1cnnc1-c1nc2cc(C(F)(F)F)ccc2[nH]1 [Compound 257, 2-(4-(1-methyl-4-(trifluoromethyl)-1H-pyrazol-5-yl)-4H-1,2,4-triazol-3-yl)-5-(trifluoromethyl)-1H-benzo[d]imidazole]	≤ 100 nM
FC(F)(F)c1ccc2[nH]c(-c3nncn3-c3cnccc3C(F)(F)F)cc2c1 [Compound 258, 5-(trifluoromethyl)-2-(4-(4-(trifluoromethyl)pyridin-3-yl)-4H-1,2,4-triazol-3-yl)-1H-indole]	≤ 100 nM
Fc1c(-c2nncn2-c2cnccc2C(F)(F)F)[nH]c2ccc(C(F)(F)F)cc12 [Compound 259, 3-fluoro-5-(trifluoromethyl)-2-(4-(4-(trifluoromethyl)pyridin-3-yl)-4H-1,2,4-triazol-3-yl)-1H-indole]	≤ 100 nM
CC(F)(F)c1ccncc1-n1cnnc1-c1nc2cc(C(F)(F)F)ccc2[nH]1 [Compound 260, 2-(4-(4-(1,1-Difluoroethyl)pyridin-3-yl)-4H-1,2,4-triazol-3-yl)-5-(trifluoromethyl)-1H-benzo[d]imidazole]	≤ 100 nM
OCc1cccc(OC(F)(F)F)c1-n1cnnc1-c1nc2cc(C(F)(F)F)ccc2[nH]1 [Compound 261, (3-(trifluoromethoxy)-2-(3-(5-(trifluoromethyl)-1H-benzo[d]imidazol-2-yl)-4H-1,2,4-triazol-4-yl)phenyl)methanol]	≤ 100 nM
